How the values were obtained:
[1] = tested on: SH-SY5Y human neuroblastoma cells; experiment: Neuroprotection against H2O2-induced toxicity, MTT cell viability assay; type: cell-based; conditions: 50 μM compound, 100 μM H2O2, 24 h, 37 °C
Description: Neuroprotective activity assays against H2O2-induced toxicity. On the basis of previously described protocols, the flavones and analogues herein synthesized were screened for their neuroprotective effects against H2O2-induced oxidative stress and neuronal damage in SH-SY5Y human neuroblastoma cells by means of a thiazolyl blue tetrazolium bromide (MTT) reduction-based cell viability assay.
Neuroprotective assays in human neuroblastoma (SH-SY5Y) cells. […] Differences were considered significant when P < 0.05.

[2] = molecular target: T1, butyrylcholinesterase (BuChE) (Equus caballus, UniProt P81908); experiment: biochemical; conditions: 100 µM compound
T1 construct: (BuChE, equine serum); from tissue; host or cells: equine serum
T1 sequence (P81908 whole entry): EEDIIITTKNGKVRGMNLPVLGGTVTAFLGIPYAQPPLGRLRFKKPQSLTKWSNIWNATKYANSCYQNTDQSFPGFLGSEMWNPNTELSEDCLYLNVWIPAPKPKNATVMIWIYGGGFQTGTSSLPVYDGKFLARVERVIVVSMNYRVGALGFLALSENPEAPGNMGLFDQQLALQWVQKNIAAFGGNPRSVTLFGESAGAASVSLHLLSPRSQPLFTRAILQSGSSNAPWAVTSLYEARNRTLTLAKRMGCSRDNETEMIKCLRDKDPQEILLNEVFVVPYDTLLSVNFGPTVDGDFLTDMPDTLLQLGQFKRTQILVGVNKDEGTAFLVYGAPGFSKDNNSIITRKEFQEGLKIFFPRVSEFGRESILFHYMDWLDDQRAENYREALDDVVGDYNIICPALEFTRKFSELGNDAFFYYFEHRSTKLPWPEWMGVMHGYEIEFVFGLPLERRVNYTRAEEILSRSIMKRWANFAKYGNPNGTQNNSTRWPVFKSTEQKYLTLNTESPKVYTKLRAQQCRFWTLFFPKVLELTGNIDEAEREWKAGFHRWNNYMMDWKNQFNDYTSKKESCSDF
Method: Experimental procedures for cholinesterase inhibition a s sa y s. For cholinesterase inhibition tests (acetylcholinesterase (AChE, electrophorus
el ec t r ic u s) a n d b ut yr ylcholinesterase (BuChE, equine serum), the Ellman’s cholorimetric assay1 was followed, with minor modifications. DMSO
was kept within 1.25% cuvette concentration. The chromogenic agent DTNB [5,5’-dithiobis(2-nitrobenzoic acid)] was fixed at 0.975 mM
con centration; 0. 1 M phosphate buffer (pH 8. 0) was employed, T = 25 °C, and the reaction was monitored for 125 s. […]
of inhibition, the substrate concentration (acetylthiocholine iodide for AChE; S- butyr ylthiocholine iodide for BuChE) was fixed at 29 µM for
AChE and at 18.2 µM concentration for BuChE.
Lineweaver-Burk plot (or double reciprocal plot, 1/V vs . 1/ [S ]) wa s u se d for estimating both, the mode of inhibition and the inhibition constants […]
Competitive inhibition (inhibitor only bonds the free enzyme):
KKiiii = [II ]KKMM iiaaaa
M i xe d inhibition (inhibitor binds both, the free and the complexed enzyme) :
Uncompetitive (the inhibitors only binds the complexed enzyme):
N on -competitive (inhibitor binds both the free enzyme and the complexed enzyme with equal affinity) :
Table S3. […]
of the synthesized flavone analogues at 100 µ M.
C omp ou n d N o. AChE B uChE

[3] = LogD7.4 determination (octan-1-ol/phosphate buffer, LC-MS); type: physicochemical; conditions: octan-1-ol/phosphate buffer, pH 7.4, octan-1-ol/phosphate buffer pH 7.4, 25 °C; read-out: Log D7.4 (partition coefficient at pH 7.4)
Method: LogD7.4 determination. The in-silico prediction tool ALOGPS [4] was used to estimate the octanol-water partition coefficients (log P) of the compounds. […] For each category, two different ratios (volume of octan-1-ol to volume of buffer) were defined as experimental parameters (Table 2).
Equal amounts of phosphate buffer (0.1 M, pH 7.4) and octan-1-ol were mixed and shaken vigorously for 5 min to saturate the phases. The mixture was left until separation of the two phases, and the buffer was retrieved. Stock solutions of the test compounds were diluted with buffer to a concentration of 1 μM. For each compound, three determinations per octan-1-ol:buffer ratio were performed in different wells of a 96-well plate. The respective volumes of buffer-containing analyte (1 μM) were pipetted to the wells and covered by saturated octan-1-ol according to the chosen volume ratio. […] The aqueous phase was transferred to a 96-well plate for analysis by liquid chromatography-mass spectrometry (LCMS, see below).
Results are presented as the mean ± SD of three independent experiments.
LC-MS measurements. […] The system was controlled with the Agilent MassHunter Workstation Data Acquisition software (version B.01.04). The column used was an AtlantisR T3 C18 column (2.1 × 50 mm) with a 3 μm-particle size (Waters Corp., Milford, MA, USA). The mobile phase consisted of eluent A: 10 mM ammonium acetate, pH 5.0 in 95:5, H2O:MeCN; and eluent B: MeCN containing 0.1% formic acid. The flow rate was maintained at 0.6 mL/min. […] MS parameters such as fragmentor voltage, collision energy, and polarity were optimized individually for each drug, and the molecular ion was followed for each compound in the multiple reaction monitoring mode. The concentrations of the analytes were quantified by the Agilent Mass Hunter Quantitative Analysis software (version B.01.04).

[4] = tested on: human epithelial colorectal adenocarcinoma (Caco-2) cells; experiment: Cell viability (MTT) assay in Caco-2 cells; type: cell-based; conditions: at 100 μM
Method: (§1) Cell viability assay in human epithelial colorectal adenocarcinoma (Caco-2) and human liver hepatocellular (HepG2) cells. Caco-2 and HepG2 Cells were cultured in DMEM-Dulbecco’s modified Eagle’s medium (Sigma-Aldrich) supplemented with 10% (v/v) inactivated fetal bovine serum (PAA Laboratories GmbH), 2 mM L-glutamine (Sigma-Aldrich), 100 U/mL penicillin and 100 μg/mL streptomycin (Sigma-Aldrich), in a humidified incubator at 37 °C with a 5% CO2 atmosphere. Cells (3 × 10^4 cells/well) were seeded into 96-well plates and incubated at 37 °C in 5% CO2 atmosphere. After 24 h, compounds were added at different concentrations (0.1–100 μM) and incubated in the same conditions. DMSO controls were performed to evaluate a possible solvent cytotoxicity, while pure DMSO was used as a cytotoxic drug. After the established incubation time with compounds, MTT (5 mg/mL) in PBS (Sigma-Aldrich) was added (10 μL) to each well. After 3 h incubation at 37 °C, in 5% CO2, the supernatant was removed. The formazan crystals were solubilized using ethanol/DMSO (1:1) (100 μL), and the absorbance values were determined at 570 nm on the microplate reader Victor3 from PerkinElmer Life Sciences.

[5] = Cell viability (MTT) assay in Caco-2 cells; type: cell-based, human; conditions: human; Caco-2 cells, 0.1 μM to 100 μM; read-out: IC50 (cytotoxicity)
Method: as §1

## O=c1cc(-c2ccc(N3CCOCC3)cc2)oc2c([C@@H]3O[C@H](CO)[C@@H](O)[C@H](O)[C@H]3O)c(O)cc(O)c12 [Compound 19, 8-(β-D-Glucopyranosyl)-5,7-dihydroxy-4′-(morpholin-4-yl)flavone]
[1]
  Neuroprotective effect against H2O2-induced toxicity (MTT cell viability): able to produce statistically significant differences when compared to H2O2 controls
[1]; listed as 37
  Neuroprotective effect against H2O2-induced toxicity (MTT cell viability): fully rescued
[2]
  BuChE inhibitory efficacy (percentage of inhibition): n.i .
[3]
  logD: 1.8 ± 0.2
[4]
  Cytotoxicity towards Caco-2 cells: did not show any cytotoxicity
[5]
  IC50: ≥ 100 µM

Reference: publication PMC6630837 (Pharmaceuticals, 2019)
